According to patent US20090280549A1, “Method for Treating Body Fluid” (priority 2005, published 2009):

Tests used:
[1] = tested on: EoL-1 cells (human eosinophilic leukemia cells); experiment: ATX-S10•Na(II) uptake into EoL-1 cells; type: cell-based; conditions: for ATX-S10•Na(II) uptake: EoL-1
Method: (§1) After labeling the compound represented by formula (II) above (hereinafter referred to as “ATX-S10•Na(II)”) with ^14C, the ATX-S10•Na(II) was dissolved in saline at a concentration of approximately 1×10^−3 mol/L, and the solution was filtered and sterilized with a 0.22 μm filter and then diluted with 1% FBS (fetal bovine serum)-containing RPMI1640 medium to prepare a 5×10^−5 mol/L ATX-S10•Na(II)-added solution.
(§2) As malignant lymphoma cells and leukemia cells, there were used THP-1 cells (human monocytic leukemia cells), EoL-1 cells (human eosinophilic leukemia cells), A3/KAW cells (human malignant lymphoma cells) and KG-1 cells (human acute myeloid leukemia cells). All of the cells were cultured using 10% FBS-containing RPMI1640 medium, with subculturing 1 to 2 times per week during the culturing. The THP-1 cells and EoL-1 cells were obtained from RIKEN BioResource Center, and the A3/KAW cells and KG-1 cells were obtained from Japan Health Sciences Foundation.
(§3) After adding 400 μL of the cell suspension and 100 μL of the ATX-S10•Na(II)-added solution to each well of a 48-well microplate and mixing, the mixtures were incubated with a CO2 incubator (37° C., 5% CO2) or allowed to stand in a refrigerating chamber (approximately 4° C.). The cells were separated immediately after addition (0 hours after addition) and 1 hour, 3 hours, 20 hours and 44 hours after addition, and ATX-S10•Na(II) uptake into the cells (including cell surface binding) was measured. The uptake with standing at 4° C. corresponds to cell surface binding, and the value of the uptake with incubation at 37° C. minus the uptake with standing at 4° C. is presumed to correspond to the substantial ATX-S 10 Na(II) uptake for each type of cell.
(§4) The cell separation and uptake measurement were performed in the following manner. Specifically, 1 mL of 1.5% BSA (bovine serum albumin)-containing PBS solution (ice-cold) was placed in a 1.5 mL tube. The suspension of cells to be separated was gently pipetted and mixed, and a 100 μL portion was taken and superposed onto the 1.5% BSA-containing PBS solution. For each well, the cell suspension (300 μL) was dispensed into three tubes (n=3). After centrifugation (3200 rpm, 10 minutes, 4° C.), the medium and 1.5% BSA-containing PBS solution were removed by suction, and then the precipitate was suspended in 100 μL of PBS(−), and 1 mL of PBS(−) was further added and mixed therewith. After additional centrifugation (3000 rpm, 10 minutes, 4° C.), the supernatant was removed by suction, and the bottom of the tube, where the precipitate is present, was cut out and transferred to a counting vial. Then 4.5 mL of liquid scintillator was added and mixed therewith, and the radioactivity was measured for 5 minutes using a liquid scintillation counter. The measured radioactivity was used to calculate the ATX-S10•Na(II) uptake (pmol/10^5 cells) into the cells.

platelets = experiment: ATX-S10•Na(II) uptake into platelets; type: cell-based, human
Method: as §1
(§5) Erythrocytes, platelets, neutrophils and lymphocytes were prepared from blood sampled from three healthy persons (designated as A, B and C).
The platelets were prepared from citric acid-treated blood. […]
(§6) After adding 400 μL of the cell suspension and 100 μL of the ATX-S10•Na(II)-added solution to each well of a 48-well microplate and mixing, the mixtures were incubated with a CO2 incubator (37° C., 5% CO2) or allowed to stand in a refrigerating chamber (approximately 4° C.). The cells were separated immediately after addition (0 hours after addition) and 1 hour, 3 hours, 20 hours and 44 hours after addition, and ATX-S10•Na(II) uptake into the cells (including cell surface binding) was measured. […]
(§7) The cell separation and uptake measurement were performed in the following manner. […] Then 4.5 mL of liquid scintillator was added and mixed therewith, and the radioactivity was measured for 5 minutes using a liquid scintillation counter. […]

[2] = tested on: THP-1 cells (activated macrophages) stimulated with PMA; experiment: ATX-S10•Na(II) uptake into THP-1 cells stimulated with PMA; type: cell-based, human
Method: as §1, §2, §3, §4
Uptake into THP-1 cells was measured also with stimulation of the cells for approximately 24 hours with PMA (2 nmol/L, 5 nmol/L or 15 nmol/L) and addition of ATX-S10•Na(II) to the cell suspension immediately after removal of the PMA. THP-1 cells differentiate into macrophages upon stimulation with PMA.

[3] = tested on: A3/KAW cells (human malignant lymphoma cells); experiment: ATX-S10•Na(II) uptake into A3/KAW cells; type: cell-based; conditions: for ATX-S10•Na(II) uptake: A3/KAW
Method: as §1, §2, §3, §4

erythrocytes = experiment: ATX-S10•Na(II) uptake into erythrocytes; type: cell-based, human
Method: as §1, §5
The erythrocytes, neutrophils and lymphocytes were prepared from heparinized blood. […]
as §6, §7

[4] = tested on: KG-1 cells (human acute myeloid leukemia cells); experiment: ATX-S10•Na(II) uptake into KG-1 cells; type: cell-based; conditions: for ATX-S10•Na(II) uptake: KG-1
Method: as §1, §2, §3, §4

[5] = 0 hr, immediately after addition

C=Cc1c(C)c2cc3nc(cc4[nH]c(cc5nc(cc1[nH]2)C(C)=C5CCC(=O)NC(CC(=O)[O-])C(=O)[O-])c(CCC(=O)NC(CC(=O)[O-])C(=O)[O-])c4C)C(C)(O)/C3=C\C=NO.[Na+].[Na+].[Na+].[Na+] (centres unmarked) [ATX-S10•Na(II)]
ATX-S10•Na(II) uptake [1, 5]: 0.32 pmol/10^5 cells | ATX-S10•Na(II) uptake ([1]; 1 hr, incubation at 37° C.): 0.25 pmol/10^5 cells | ATX-S10•Na(II) uptake ([1]; 1 hr, standing at 4° C.): 0.30 pmol/10^5 cells | ATX-S10•Na(II) uptake ([1]; 3 hr, incubation at 37° C.): 0.48 pmol/10^5 cells | ATX-S10•Na(II) uptake ([1]; 3 hr, standing at 4° C.): 0.32 pmol/10^5 cells | ATX-S10•Na(II) uptake ([1]; 20 hr, incubation at 37° C.): 1.59 pmol/10^5 cells | ATX-S10•Na(II) uptake ([1]; 20 hr, standing at 4° C.): 0.36 pmol/10^5 cells | ATX-S10•Na(II) uptake ([1]; 44 hr, incubation at 37° C.): 3.09 pmol/10^5 cells | ATX-S10•Na(II) uptake ([1]; 44 hr, standing at 4° C.): 0.37 pmol/10^5 cells | uptake compared between cell types ([1]; EoL-1 cells versus THP-1, A3/KAW and KG-1 cells): fairly low value | substantial uptake of ATX-S10•Na(II) (uptake at 37° C. minus uptake at 4° C.) ([1]; EoL-1 cells, course over incubation time): increased with incubation time | Aggregation of platelets (platelets; after incubation at 37° C. for 44 hours): Aggregation of platelets was observed | ATX-S10•Na(II) uptake (platelets; platelets): Almost no ATX-S10•Na(II) was taken up | uptake compared with unstimulated cells ([2]; THP-1 cells (activated macrophages) stimulated with PMA for 24 hours): higher than without stimulation with PMA | ATX-S10•Na(II) uptake ([2]; THP-1 stimulated with 2 nmol/L PMA, 0 hr, immediately after addition): 1.66 pmol/10^5 cells | ATX-S10•Na(II) uptake ([2]; THP-1 stimulated with 2 nmol/L PMA, 3 hr, incubation at 37° C.): 6.66 pmol/10^5 cells | ATX-S10•Na(II) uptake ([2]; THP-1 stimulated with 2 nmol/L PMA, 3 hr, standing at 4° C.): 7.05 pmol/10^5 cells | ATX-S10•Na(II) uptake ([2]; THP-1 stimulated with 2 nmol/L PMA, 20 hr, incubation at 37° C.): 11.75 pmol/10^5 cells | ATX-S10•Na(II) uptake ([2]; THP-1 stimulated with 2 nmol/L PMA, 20 hr, standing at 4° C.): 5.32 pmol/10^5 cells | ATX-S10•Na(II) uptake ([2]; THP-1 stimulated with 5 nmol/L PMA, 0 hr, immediately after addition): 2.07 pmol/10^5 cells | ATX-S10•Na(II) uptake ([2]; THP-1 stimulated with 5 nmol/L PMA, 3 hr, incubation at 37° C.): 11.37 pmol/10^5 cells | ATX-S10•Na(II) uptake ([2]; THP-1 stimulated with 5 nmol/L PMA, 3 hr, standing at 4° C.): 8.48 pmol/10^5 cells | ATX-S10•Na(II) uptake ([2]; THP-1 stimulated with 5 nmol/L PMA, 20 hr, incubation at 37° C.): 16.06 pmol/10^5 cells | ATX-S10•Na(II) uptake ([2]; THP-1 stimulated with 5 nmol/L PMA, 20 hr, standing at 4° C.): 7.53 pmol/10^5 cells | ATX-S10•Na(II) uptake ([2]; THP-1 stimulated with 15 nmol/L PMA, 0 hr, immediately after addition): 2.93 pmol/10^5 cells | ATX-S10•Na(II) uptake ([2]; THP-1 stimulated with 15 nmol/L PMA, 3 hr, incubation at 37° C.): 18.31 pmol/10^5 cells | ATX-S10•Na(II) uptake ([2]; THP-1 stimulated with 15 nmol/L PMA, 3 hr, standing at 4° C.): 12.74 pmol/10^5 cells | ATX-S10•Na(II) uptake ([2]; THP-1 stimulated with 15 nmol/L PMA, 20 hr, incubation at 37° C.): 19.95 pmol/10^5 cells | ATX-S10•Na(II) uptake ([2]; THP-1 stimulated with 15 nmol/L PMA, 20 hr, standing at 4° C.): 9.13 pmol/10^5 cells | substantial uptake of ATX-S10•Na(II) (uptake at 37° C. minus uptake at 4° C.) ([3]; A3/KAW cells, course over incubation time): increased with incubation time | ATX-S10•Na(II) uptake [3, 5]: 0.72 pmol/10^5 cells | ATX-S10•Na(II) uptake ([3]; 1 hr, incubation at 37° C.): 2.38 pmol/10^5 cells | ATX-S10•Na(II) uptake ([3]; 1 hr, standing at 4° C.): 1.16 pmol/10^5 cells | ATX-S10•Na(II) uptake ([3]; 3 hr, incubation at 37° C.): 3.79 pmol/10^5 cells | ATX-S10•Na(II) uptake ([3]; 3 hr, standing at 4° C.): 1.06 pmol/10^5 cells | ATX-S10•Na(II) uptake ([3]; 20 hr, incubation at 37° C.): 10.06 pmol/10^5 cells | ATX-S10•Na(II) uptake ([3]; 20 hr, standing at 4° C.): 1.44 pmol/10^5 cells | ATX-S10•Na(II) uptake ([3]; 44 hr, incubation at 37° C.): 27.64 pmol/10^5 cells | ATX-S10•Na(II) uptake ([3]; 44 hr, standing at 4° C.): 5.07 pmol/10^5 cells | ATX-S10•Na(II) uptake (erythrocytes): Almost no ATX-S10•Na(II) was taken up | ATX-S10•Na(II) uptake [4, 5]: 0.40 pmol/10^5 cells | ATX-S10•Na(II) uptake ([4]; 1 hr, incubation at 37° C.): 2.34 pmol/10^5 cells | ATX-S10•Na(II) uptake ([4]; 1 hr, standing at 4° C.): 1.36 pmol/10^5 cells | ATX-S10•Na(II) uptake ([4]; 3 hr, incubation at 37° C.): 2.59 pmol/10^5 cells | ATX-S10•Na(II) uptake ([4]; 3 hr, standing at 4° C.): 1.50 pmol/10^5 cells | ATX-S10•Na(II) uptake ([4]; 20 hr, incubation at 37° C.): 6.85 pmol/10^5 cells | ATX-S10•Na(II) uptake ([4]; 20 hr, standing at 4° C.): 2.87 pmol/10^5 cells | ATX-S10•Na(II) uptake ([4]; 44 hr, incubation at 37° C.): 10.97 pmol/10^5 cells | ATX-S10•Na(II) uptake ([4]; 44 hr, standing at 4° C.): 0.96 pmol/10^5 cells | substantial uptake of ATX-S10•Na(II) (uptake at 37° C. minus uptake at 4° C.) ([4]; KG-1 cells, course over incubation time): increased with incubation time
